# Results reported in PubChem BioAssay AID2060496 (Molecular Pharmacology Branch, DTP, NCI, 2025).
# Test system: 276233-004-R-J1-PDC complex spheroid viability
# Assay: Anticancer human tumor 276233-004-R-J1-PDC patient-derived colon adenocarcinoma cell line growth inhibition [GQUAD]
# Details: for IC50: curve of first compound; for viability, T/C: stronger effect = lower value
# Outline: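 Multi-cell-type spheroids of tumor cells with HUVEC and mesenchymal stem cells, treated with drug combinations. Concentrations descend in half-log steps from near clinical Cmax, or from 10 microM where Cmax is unknown; viability read-out.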
# [1] = second compound 0.0316 µM, first compound 0.0316 µM
# [2] = second compound 0.0316 µM, first compound 0.1 µM
# [3] = second compound 0.0316 µM, first compound 0.316 µM
# [4] = second compound 0.0316 µM, first compound 1 µM
# [5] = second compound 0.0316 µM, first compound 3.16 µM
# [6] = second compound 0.0316 µM, first compound 10 µM
# [7] = second compound 0.1 µM, first compound 0.0316 µM
# [8] = second compound 0.1 µM, first compound 0.1 µM
# [9] = second compound 0.1 µM, first compound 0.316 µM
# [10] = second compound 0.1 µM, first compound 1 µM
# [11] = second compound 0.1 µM, first compound 3.16 µM
# [12] = second compound 0.1 µM, first compound 10 µM
# [13] = second compound 0.316 µM, first compound 0.0316 µM
# [14] = second compound 0.316 µM, first compound 0.1 µM
# [15] = second compound 0.316 µM, first compound 0.316 µM
# [16] = second compound 0.316 µM, first compound 1 µM
# [17] = second compound 0.316 µM, first compound 3.16 µM
# [18] = second compound 0.316 µM, first compound 10 µM
# [19] = second compound 1 µM, first compound 0.0316 µM
# [20] = second compound 1 µM, first compound 0.1 µM
# [21] = second compound 1 µM, first compound 0.316 µM
# [22] = second compound 1 µM, first compound 1 µM
# [23] = second compound 1 µM, first compound 3.16 µM
# [24] = second compound 1 µM, first compound 10 µM
# [25] = second compound 3.16 µM, first compound 0.0316 µM
# [26] = second compound 3.16 µM, first compound 0.1 µM
# [27] = second compound 3.16 µM, first compound 0.316 µM
# [28] = second compound 3.16 µM, first compound 1 µM
# [29] = second compound 3.16 µM, first compound 3.16 µM
# [30] = second compound 3.16 µM, first compound 10 µM
# [31] = second compound 10 µM, first compound 0.0316 µM
# [32] = second compound 10 µM, first compound 0.1 µM
# [33] = second compound 10 µM, first compound 0.316 µM
# [34] = second compound 10 µM, first compound 1 µM
# [35] = second compound 10 µM, first compound 3.16 µM
# [36] = second compound 10 µM, first compound 10 µM
# [37] = second compound 0.0316 µM, first compound 0.000999 µM
# [38] = second compound 0.0316 µM, first compound 0.00316 µM
# [39] = second compound 0.0316 µM, first compound 0.00999 µM
# [40] = second compound 0.0316 µM, first compound 0.0999 µM
# [41] = second compound 0.1 µM, first compound 0.000999 µM
# [42] = second compound 0.1 µM, first compound 0.00316 µM
# [43] = second compound 0.1 µM, first compound 0.00999 µM
# [44] = second compound 0.1 µM, first compound 0.0999 µM
# [45] = second compound 0.316 µM, first compound 0.000999 µM
# [46] = second compound 0.316 µM, first compound 0.00316 µM
# [47] = second compound 0.316 µM, first compound 0.00999 µM
# [48] = second compound 0.316 µM, first compound 0.0999 µM
# [49] = second compound 1 µM, first compound 0.000999 µM
# [50] = second compound 1 µM, first compound 0.00316 µM
# [51] = second compound 1 µM, first compound 0.00999 µM
# [52] = second compound 1 µM, first compound 0.0999 µM
# [53] = second compound 3.16 µM, first compound 0.000999 µM
# [54] = second compound 3.16 µM, first compound 0.00316 µM
# [55] = second compound 3.16 µM, first compound 0.00999 µM
# [56] = second compound 3.16 µM, first compound 0.0999 µM
# [57] = second compound 10 µM, first compound 0.000999 µM
# [58] = second compound 10 µM, first compound 0.00316 µM
# [59] = second compound 10 µM, first compound 0.00999 µM
# [60] = second compound 10 µM, first compound 0.0999 µM
# 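Note: spheroids exposed to drugs for seven days.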
# 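Throughout, for viability, T/C: 100% = DMSO vehicle control viability.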
structure (smiles),measurement,setting,value
O=C(c1cc(Cc2n[nH]c(=O)c3ccccc23)ccc1F)N1CCN(C(=O)C2CC2)CC1 + CN(C)c1ccc(Nc2c3ccc(NC(=O)CCN4CCCC4)cc3nc3cc(NC(=O)CCN4CCCC4)ccc23)cc1,IC50,second compound 0.0316 µM,> 10000 nM
same,IC50,second compound 0.1 µM,> 10000 nM
same,IC50,second compound 0.316 µM,> 10000 nM
same,IC50,second compound 1 µM,> 10000 nM
same,IC50,second compound 3.16 µM,> 10000 nM
same,IC50,second compound 10 µM,< 31.6 nM
same,"viability, T/C",[1],76.4%
same,"viability, T/C",[2],83.4%
same,"viability, T/C",[3],91.8%
same,"viability, T/C",[4],125%
same,"viability, T/C",[5],77.4%
same,"viability, T/C",[6],82%
same,"viability, T/C",[7],98.9%
same,"viability, T/C",[8],100%
same,"viability, T/C",[9],97.6%
same,"viability, T/C",[10],84.4%
same,"viability, T/C",[11],76%
same,"viability, T/C",[12],88.1%
same,"viability, T/C",[13],75.5%
same,"viability, T/C",[14],73.8%
same,"viability, T/C",[15],69.5%
same,"viability, T/C",[16],65%
same,"viability, T/C",[17],81.4%
same,"viability, T/C",[18],68.6%
same,"viability, T/C",[19],71.4%
same,"viability, T/C",[20],55.4%
same,"viability, T/C",[21],49.8%
same,"viability, T/C",[22],52.9%
same,"viability, T/C",[23],52%
same,"viability, T/C",[24],55.5%
same,"viability, T/C",[25],52.7%
same,"viability, T/C",[26],53.4%
same,"viability, T/C",[27],52.1%
same,"viability, T/C",[28],55.6%
same,"viability, T/C",[29],48.5%
same,"viability, T/C",[30],53.1%
same,"viability, T/C",[31],41.7%
same,"viability, T/C",[32],63.3%
same,"viability, T/C",[33],48.9%
same,"viability, T/C",[34],57%
same,"viability, T/C",[35],55.2%
same,"viability, T/C",[36],67.3%
Cn1ncnc1[C@H]1c2n[nH]c(=O)c3cc(F)cc(c23)N[C@@H]1c1ccc(F)cc1 + Cc1[nH]c2ccc(F)cc2c1-c1nc2c3cccnc3c3ncccc3c2[nH]1,IC50,second compound 0.0316 µM,> 316 nM
same,IC50,second compound 0.1 µM,> 316 nM
same,IC50,second compound 0.316 µM,> 316 nM
same,IC50,second compound 1 µM,> 316 nM
same,IC50,second compound 3.16 µM,> 316 nM
same,IC50,second compound 10 µM,< 0.999 nM
same,"viability, T/C",[37],89%
same,"viability, T/C",[38],99.2%
same,"viability, T/C",[39],104%
same,"viability, T/C",[1],94.1%
same,"viability, T/C",[40],95.6%
same,"viability, T/C",[3],90.7%
same,"viability, T/C",[41],91.2%
same,"viability, T/C",[42],97.8%
same,"viability, T/C",[43],99.9%
same,"viability, T/C",[7],88.5%
same,"viability, T/C",[44],98%
same,"viability, T/C",[9],94.8%
same,"viability, T/C",[45],94.7%
same,"viability, T/C",[46],79.9%
same,"viability, T/C",[47],86.6%
same,"viability, T/C",[13],99.2%
same,"viability, T/C",[48],100%
same,"viability, T/C",[15],93%
same,"viability, T/C",[49],63.5%
same,"viability, T/C",[50],66.6%
same,"viability, T/C",[51],78.7%
same,"viability, T/C",[19],72.7%
same,"viability, T/C",[52],70.6%
same,"viability, T/C",[21],84.7%
same,"viability, T/C",[53],56.3%
same,"viability, T/C",[54],66.5%
same,"viability, T/C",[55],49.2%
same,"viability, T/C",[25],54.2%
same,"viability, T/C",[56],60.4%
same,"viability, T/C",[27],57.4%
same,"viability, T/C",[57],50.3%
same,"viability, T/C",[58],47.3%
same,"viability, T/C",[59],50.5%
same,"viability, T/C",[31],62.7%
same,"viability, T/C",[60],62%
same,"viability, T/C",[33],44.2%
CC1COCCN1c1cc(-c2ccnn2C)c2ccnc(-c3ccn[nH]3)c2n1 (stereo not drawn) + CN(C)c1ccc(Nc2c3ccc(NC(=O)CCN4CCCC4)cc3nc3cc(NC(=O)CCN4CCCC4)ccc23)cc1,IC50,second compound 0.0316 µM,7140 nM
same,IC50,second compound 0.1 µM,6120 nM
same,IC50,second compound 0.316 µM,513 nM
same,IC50,second compound 1 µM,109 nM
same,IC50,second compound 3.16 µM,145 nM
same,IC50,second compound 10 µM,< 31.6 nM
same,"viability, T/C",[1],83.7%
same,"viability, T/C",[2],77.8%
same,"viability, T/C",[3],74.8%
same,"viability, T/C",[4],73.1%
same,"viability, T/C",[5],55%
same,"viability, T/C",[6],47.9%
same,"viability, T/C",[7],80.4%
same,"viability, T/C",[8],70%
same,"viability, T/C",[9],76.6%
same,"viability, T/C",[10],69.9%
same,"viability, T/C",[11],56.3%
same,"viability, T/C",[12],44.1%
same,"viability, T/C",[13],77.9%
same,"viability, T/C",[14],61.6%
same,"viability, T/C",[15],51.6%
same,"viability, T/C",[16],52.5%
same,"viability, T/C",[17],35.3%
same,"viability, T/C",[18],40.3%
same,"viability, T/C",[19],52.9%
same,"viability, T/C",[20],54.1%
same,"viability, T/C",[21],44.7%
same,"viability, T/C",[22],40.5%
same,"viability, T/C",[23],38.2%
same,"viability, T/C",[24],34.4%
same,"viability, T/C",[25],58.5%
same,"viability, T/C",[26],56%
same,"viability, T/C",[27],42.6%
same,"viability, T/C",[28],40.5%
same,"viability, T/C",[29],40.4%
same,"viability, T/C",[30],35.5%
same,"viability, T/C",[31],46.2%
same,"viability, T/C",[32],40.1%
same,"viability, T/C",[33],33.8%
same,"viability, T/C",[34],32.6%
same,"viability, T/C",[35],39.8%
same,"viability, T/C",[36],27.8%
Cn1ncnc1[C@H]1c2n[nH]c(=O)c3cc(F)cc(c23)N[C@@H]1c1ccc(F)cc1 + Cc1cnc(CNC(=O)c2c(=O)c3ccc(N4CCCN(C)CC4)nc3n3c2sc2ccccc23)cn1,IC50,second compound 0.0316 µM,> 316 nM
same,IC50,second compound 0.1 µM,> 316 nM
same,IC50,second compound 0.316 µM,> 316 nM
same,IC50,second compound 1 µM,> 316 nM
same,IC50,second compound 3.16 µM,> 316 nM
same,IC50,second compound 10 µM,> 316 nM
same,"viability, T/C",[37],94.8%
same,"viability, T/C",[38],72.2%
same,"viability, T/C",[39],79.9%
same,"viability, T/C",[1],82.6%
same,"viability, T/C",[40],82.9%
same,"viability, T/C",[3],83.8%
same,"viability, T/C",[41],92.2%
same,"viability, T/C",[42],85.1%
same,"viability, T/C",[43],73%
same,"viability, T/C",[7],78.3%
same,"viability, T/C",[44],89.2%
same,"viability, T/C",[9],87.3%
same,"viability, T/C",[45],78.6%
same,"viability, T/C",[46],91.9%
same,"viability, T/C",[47],86.4%
same,"viability, T/C",[13],82.8%
same,"viability, T/C",[48],80.8%
same,"viability, T/C",[15],78.2%
same,"viability, T/C",[49],70.3%
same,"viability, T/C",[50],65.9%
same,"viability, T/C",[51],80.1%
same,"viability, T/C",[19],74.4%
same,"viability, T/C",[52],88.5%
same,"viability, T/C",[21],69.2%
same,"viability, T/C",[53],69.5%
same,"viability, T/C",[54],71.5%
same,"viability, T/C",[55],61.2%
same,"viability, T/C",[25],67.5%
same,"viability, T/C",[56],70.7%
same,"viability, T/C",[27],62.8%
same,"viability, T/C",[57],68.4%
same,"viability, T/C",[58],59.1%
same,"viability, T/C",[59],64.8%
same,"viability, T/C",[31],71.8%
same,"viability, T/C",[60],66.2%
same,"viability, T/C",[33],63.5%
